Several values for one entry are separate records, joined by “and”; a condition that tells them apart may be missing. Equal entries are not always repeated. Marks after values point to notes of the source that are not given here.
Columns and labels:
patients with T2DM [1] = assay: Example 1 study: Mixed Meal Tolerance Test (MMTT); format: in vivo, human
Experimental: In respect of Cohort 1, the MMTT is performed at baseline and on Day 80. In respect of Cohort 2, the MMTT is performed at baseline and on Day 108.
Patients are provided breakfast meals for the MMTTs. Upon awakening, patients consume water to stay hydrated in order to mitigate problems with blood sample collections. Patients are provided individualized breakfast meals for the MMTTs. The total caloric content is approximately 30% of the daily estimated caloric need for weight. The macronutrient composition of the meals is targeted to provide approximately 50% of the calories from carbohydrate, 30% of the calories from fat, and 20% of the calories from protein. Patients are fasted (except for water) for at least 8 hours before each test meal and consume each meal within approximately 20 minutes. Test meals for each patient are kept consistent with respect to calorie and nutrient content across all MMTT assessments in the study.
For both parts of the study, the patient is not allowed to consume water (apart from fluid provided with the meal) for approximately 3 hours post MMTT until BOD POD® measurement.
While resident in the CRU, patients may not consume any food or caloric drinks other than that provided by the CRU. When not resident in the CRU, patients may resume their regular diet. The actual time of meal start and completion, total calories, and amount of meal (%) consumed in the MMTT are recorded.

patients with T2DM [2] = assay: Example 1 study: appetite analysis (VAS); format: in vivo, human
Text: To explore the effects of Compound 1 on meal intake and appetite sensation, subjects are asked to rate their appetite sensations using a 100-mm visual analogue scale
(VAS) for parameters of hunger, fullness, satiety, and prospective food consumption in the fasted state while inpatient as well as on scheduled outpatient visits. The VAS is a validated tool to assess appetite sensation parameters (Flint et al., Int J Obes Relat Metab Disord., 2000; 24(1):38-48). The VAS is presented as a 10-cm (100-mm) line, anchored by verbal descriptors, usually “extremely” and “not at all.” Subjects are required to rate their subjective sensations on four 100-mm scales combined with questions similar to the following: • “How hungry do you feel?” • “How satisfied do you feel?” • “How full do you feel?” • “How much do you think you could eat?”
Overall appetite score is calculated as the average of the 4 individual scores: satiety plus fullness plus (100−prospective food consumption) plus (100−hunger)/4 (van Can et al., Int J Obes (Lond). 2014; 38(6):784-793). The higher overall appetite score indicates less appetite, and the lower score indicates more appetite.
In respect of […], the satiety VAS (after fasting) is completed at baseline and Days 1, 29, 57, 78 and 80.
In respect of […], the satiety VAS (after fasting) is completed at baseline and Days 1, 22, 43, 64, 85, 106 and 108.
When the satiety VAS assessment coincides with the MMTT, it is performed pre-meal and 1 hour and 4 hours post MMTT.

[3] = Cohort 1, escalated to 4.5 mg, Day 80
[4] = Cohort 2, escalated to 10.0 mg, Day 108
[5] = both treatment groups, over dosing periods

For CC(C)C[C@H](NC(=O)[C@H](CC(C)C)NC(=O)[C@H](Cc1c[nH]c2ccccc12)NC(=O)[C@H](CCC(=O)O)NC(=O)[C@@H](NC(=O)[C@H](Cc1ccccc1)NC(=O)[C@H](CCC(=O)O)NC(=O)[C@H](CCCCNC(=O)COCCOCCNC(=O)COCCOCCNC(=O)CC[C@H](NC(=O)CCCCCCCCCCCCCCCCCCC(=O)O)C(=O)O)NC(=O)[C@H](C)NC(=O)[C@H](CCCCN)NC(=O)[C@H](CCCCN)NC(=O)[C@H](CCC(=O)O)NC(=O)[C@H](CC(=O)O)NC(=O)[C@H](CC(C)C)NC(=O)[C@H](Cc1ccc(O)cc1)NC(=O)[C@H](CCCCN)NC(=O)[C@H](CO)NC(=O)[C@H](Cc1ccc(O)cc1)NC(=O)[C@H](CC(=O)O)NC(=O)[C@H](CO)NC(=O)[C@@H](NC(=O)[C@H](Cc1ccccc1)NC(=O)[C@@H](NC(=O)CNC(=O)[C@H](CCC(N)=O)NC(=O)C(C)(C)NC(=O)[C@@H](N)Cc1c[nH]cn1)[C@@H](C)O)[C@@H](C)O)C(C)C)C(=O)N[C@@H](CCC(=O)O)C(=O)NCC(=O)NCC(=O)N1CCC[C@H]1C(=O)N[C@@H](CO)C(=O)N[C@@H](CO)C(=O)NCC(N)=O [Compound 1], the “C-peptide AUC(0-3 h) during MMTT, mean” value (patients with T2DM [1]; Cohort 1 (1.5-4.5 mg QW), Day 80, baseline 4391.4) was 5850.1 pmol·h/L, the “C-peptide AUC(0-3 h) during MMTT, change from baseline” value (patients with T2DM [1]; Cohort 1, Day 80) was 1474.6* pmol · h/L and the “Disposition index, change from baseline” value (patients with T2DM [1]; Cohort 1, Day 80) was −0.235. The “First PH ISI-S, change from baseline” value (patients with T2DM [1]; Cohort 1, Day 80) was 12090.422, the “Glucagon AUC(0-3 h) during MMTT, change from baseline” value (patients with T2DM [1]; Cohort 1, Day 80) was -32.50 pmol·h/L and the “Glucose AUC(0-3 h) during MMTT, change from baseline” value (patients with T2DM [1]; Cohort 1, Day 80) was -14.37 mmol·h/L. The “HOMA2-B, change from baseline” value (patients with T2DM [1]; Cohort 1, Day 80) was 22.971, the “HOMA2-IR, change from baseline” value (patients with T2DM [1]; Cohort 1, Day 80) was −0.434 and the “ISI-M (Matsuda Index), change from baseline” value (patients with T2DM [1]; Cohort 1, Day 80) was 0.237. For the same molecule, the “MMTT glucose AUC 0-3 hours, approximate decrease from baseline” value (patients with T2DM [1]; Cohort 1, Day 80) was about 40%, the “Oxyntomodulin AUC(0-3 h) during MMTT, change from baseline” value (patients with T2DM [1]; Cohort 1, Day 80) was -41.594 pmol·h/L and the “Second PH ISI-S, change from baseline” value (patients with T2DM [1]; Cohort 1, Day 80) was 2273.29. The “Disposition index, mean” value (patients with T2DM [1]; Cohort 1, Day 80, baseline 1.033) was 0.642, the “ISI-M (Matsuda Index), mean” value (patients with T2DM [1]; Cohort 1, Day 80, baseline 3.568) was 3.567 and the “HOMA2-IR, mean” value (patients with T2DM [1]; Cohort 1, Day 80, baseline 4.704) was 4.271. For the same molecule, the “HOMA2-B, mean” value (patients with T2DM [1]; Cohort 1, Day 80, baseline 15.791) was 38.762, the “Glucose AUC(0-3 h) during MMTT, mean” value (patients with T2DM [1]; Cohort 1, Day 80, baseline 43.06) was 25.76 mmol·h/L and 25.72 mmol·h/L and the “Glucagon AUC(0-3 h) during MMTT, mean” value (patients with T2DM [1]; Cohort 1, Day 80, baseline 64.98) was 27.93 pmol·h/L. For the same molecule, the “Oxyntomodulin AUC(0-3 h) during MMTT, mean” value (patients with T2DM [1]; Cohort 1, Day 80, baseline 89.822) was 58.042 pmol·h/L, the “Second PH ISI-S (second phase Stumvoll Index), mean” value (patients with T2DM [1]; Cohort 1, Day 80, baseline −6253.26) was −3634.241 and the “First PH ISI-S (first phase Stumvoll Index), mean” value (patients with T2DM [1]; Cohort 1, Day 80, baseline −33534.1) was −19605.805. The “MMTT C-peptide AUC 0-3 hours, approximate increase from baseline” value (patients with T2DM [1]; [3]) was about 33%, the “MMTT glucagon AUC 0-3 hours, approximate decrease from baseline” value (patients with T2DM [1]; [3]) was about 57% and the “MMTT insulin AUC 0-3 hours, approximate increase from baseline” value (patients with T2DM [1]; [3]) was about 51%. For the same molecule, the “Matsuda index (ISI-M) versus baseline” value (patients with T2DM [1]; [3]) was “no change from baseline”, the “MMTT insulin mean area under the curve 0-3 hours” value (patients with T2DM [1]; Cohort 1, escalated to 4.5 mg, Day 80, baseline 125.233) was 189.435 h*mIU/L and the “C-peptide AUC(0-3 h) during MMTT, mean” value (patients with T2DM [1]; Cohort 2 (2-10 mg QW), Day 108, baseline 3604.1) was 3147.4 pmol·h/L. The “C-peptide AUC(0-3 h) during MMTT, change from baseline” value (patients with T2DM [1]; Cohort 2, Day 108) was -897.4 pmol·h/L, the “Disposition index, change from baseline” value (patients with T2DM [1]; Cohort 2, Day 108) was −0.198 and the “First PH ISI-S (first phase Stumvoll Index), mean” value (patients with T2DM [1]; Cohort 2, Day 108) was −19372.347. For the same molecule, the “First PH ISI-S, change from baseline” value (patients with T2DM [1]; Cohort 2, Day 108) was 11985.334, the “Glucagon AUC(0-3 h) during MMTT, change from baseline” value (patients with T2DM [1]; Cohort 2, Day 108) was -40.55 pmol·h/L and the “Glucose AUC(0-3 h) during MMTT, change from baseline” value (patients with T2DM [1]; Cohort 2, Day 108) was -15.73 mmol·h/L. For the same molecule, the “HOMA2-B, change from baseline” value (patients with T2DM [1]; Cohort 2, Day 108) was 3.824, the “HOMA2-IR, change from baseline” value (patients with T2DM [1]; Cohort 2, Day 108) was −1.071 and the “ISI-M (Matsuda Index), change from baseline” value (patients with T2DM [1]; Cohort 2, Day 108) was 5.905. For the same molecule, the “Oxyntomodulin AUC(0-3 h) during MMTT, change from baseline” value (patients with T2DM [1]; Cohort 2, Day 108) was -49.843 pmol·h/L, the “Second PH ISI-S, change from baseline” value (patients with T2DM [1]; Cohort 2, Day 108) was 2252.292 and the “Disposition index, mean” value (patients with T2DM [1]; Cohort 2, Day 108, baseline 1.276) was 1.265. The “HOMA2-IR, mean” value (patients with T2DM [1]; Cohort 2, Day 108, baseline 2.7) was 1.325, the “ISI-M (Matsuda Index), mean” value (patients with T2DM [1]; Cohort 2, Day 108, baseline 4.616) was 10.7 and the “HOMA2-B, mean” value (patients with T2DM [1]; Cohort 2, Day 108, baseline 9.108) was 12.077. The “Glucose AUC(0-3 h) during MMTT, mean” value (patients with T2DM [1]; Cohort 2, Day 108, baseline 38.27) was 23.74 mmol·h/L, the “Glucagon AUC(0-3 h) during MMTT, mean” value (patients with T2DM [1]; Cohort 2, Day 108, baseline 39.89) was 7.61 pmol·h/L and the “Oxyntomodulin AUC(0-3 h) during MMTT, mean” value (patients with T2DM [1]; Cohort 2, Day 108, baseline 124.741) was 66.077 pmol·h/L. For the same molecule, the “Second PH ISI-S (second phase Stumvoll Index), mean” value (patients with T2DM [1]; Cohort 2, Day 108, baseline −5889.19) was −3593.001, the “MMTT C-peptide AUC 0-3 hours, approximate decrease from baseline” value (patients with T2DM [1]; [4]) was about 13% and the “MMTT glucagon AUC 0-3 hours, approximate decrease from baseline” value (patients with T2DM [1]; [4]) was about 81%. For the same molecule, the “MMTT glucose AUC 0-3 hours, approximate decrease from baseline” value (patients with T2DM [1]; [4]) was about 38%, the “MMTT insulin AUC 0-3 hours, approximate decrease from baseline” value (patients with T2DM [1]; [4]) was about 10% and the “Matsuda index (ISI-M), approximate increase from baseline” value (patients with T2DM [1]; [4]) was “approximately 132%”. The “MMTT insulin area under the curve 0-3 hours” value (patients with T2DM [1]; Cohort 2, escalated to 10.0 mg, Day 108, baseline 77.692) was 69.847 h*mIU/L, the “sMMTT total cholesterol levels” value (patients with T2DM [1]; Cohort 2 doses (FIG. 7b)) was “substantially reduced” and the “sMMTT HDL cholesterol levels” value (patients with T2DM [1]; Cohort 2 doses (FIG. 7e)) was “substantially reduce”. The “sMMTT LDL cholesterol levels” value (patients with T2DM [1]; Cohort 2 doses (FIG. 7f)) was “substantially reduce”, the sMMTT triglyceride levels (patients with T2DM [1]; Cohort 2 doses (FIG. 7h)) was “substantially reduce” and the “reduction of glucagon secretion from baseline in response to mixed meals” value (patients with T2DM [1]; dose up to 4.5 mg) was “greater than 50%”. The “reduction of glucagon secretion from baseline in response to mixed meals” value (patients with T2DM [1]; dose up to 10 mg) was “greater than 80%”, the overall appetite scores (patients with T2DM [2]; all treatment groups incl. placebo, 12-week or 16-week dosing, higher score = less appetite) was “generally increase from baseline” and the hunger scores (patients with T2DM [2]; both treatment groups, majority of time points) was “decrease from baseline”. The fullness scores (patients with T2DM [2]; [5]) was “increased from baseline”, the satiety scores (patients with T2DM [2]; [5]) was “decrease from baseline” and the VAS appetite assessments (patients with T2DM [2]; higher dose cohort (FIG. 8)) was “reduced hunger, increased satiety, decreased overall appetite”.

— patent US20260248879A1, “METHODS OF USING A GCG/GLP1 CO-AGONIST FOR THERAPY” (ELI LILLY AND COMPANY, priority 2022, published 2026)
